Measured values taken from ChEMBL document CHEMBL5465560, “Selectivity Literature for EUbOPEN Chemogenomic Library” (2024).

Columns and labels:
[1] = target: T1, Interleukin-1 receptor-associated kinase 4 (Homo sapiens) (UniProt Q9NWZ3); settings: at 10 µM
T1 sequence (whole entry): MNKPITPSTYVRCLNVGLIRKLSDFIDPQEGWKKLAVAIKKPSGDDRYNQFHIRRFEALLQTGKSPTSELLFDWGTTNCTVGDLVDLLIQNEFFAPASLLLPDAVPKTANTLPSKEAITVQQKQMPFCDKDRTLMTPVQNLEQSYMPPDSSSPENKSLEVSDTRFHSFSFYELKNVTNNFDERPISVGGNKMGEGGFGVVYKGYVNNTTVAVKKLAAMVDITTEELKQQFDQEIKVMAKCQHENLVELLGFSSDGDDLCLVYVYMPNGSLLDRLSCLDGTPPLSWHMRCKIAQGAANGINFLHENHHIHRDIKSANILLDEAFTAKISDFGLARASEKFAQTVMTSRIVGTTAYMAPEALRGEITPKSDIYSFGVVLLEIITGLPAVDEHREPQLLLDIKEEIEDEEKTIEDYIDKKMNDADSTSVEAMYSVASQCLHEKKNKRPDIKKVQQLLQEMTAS

[2] = target: Serine/threonine-protein kinase SIK2 (Homo sapiens) (UniProt Q9H0K1); settings: at 10 µM
Chain of Serine/threonine-protein kinase SIK2 (Homo sapiens) (Q9H0K1 whole entry, looked up): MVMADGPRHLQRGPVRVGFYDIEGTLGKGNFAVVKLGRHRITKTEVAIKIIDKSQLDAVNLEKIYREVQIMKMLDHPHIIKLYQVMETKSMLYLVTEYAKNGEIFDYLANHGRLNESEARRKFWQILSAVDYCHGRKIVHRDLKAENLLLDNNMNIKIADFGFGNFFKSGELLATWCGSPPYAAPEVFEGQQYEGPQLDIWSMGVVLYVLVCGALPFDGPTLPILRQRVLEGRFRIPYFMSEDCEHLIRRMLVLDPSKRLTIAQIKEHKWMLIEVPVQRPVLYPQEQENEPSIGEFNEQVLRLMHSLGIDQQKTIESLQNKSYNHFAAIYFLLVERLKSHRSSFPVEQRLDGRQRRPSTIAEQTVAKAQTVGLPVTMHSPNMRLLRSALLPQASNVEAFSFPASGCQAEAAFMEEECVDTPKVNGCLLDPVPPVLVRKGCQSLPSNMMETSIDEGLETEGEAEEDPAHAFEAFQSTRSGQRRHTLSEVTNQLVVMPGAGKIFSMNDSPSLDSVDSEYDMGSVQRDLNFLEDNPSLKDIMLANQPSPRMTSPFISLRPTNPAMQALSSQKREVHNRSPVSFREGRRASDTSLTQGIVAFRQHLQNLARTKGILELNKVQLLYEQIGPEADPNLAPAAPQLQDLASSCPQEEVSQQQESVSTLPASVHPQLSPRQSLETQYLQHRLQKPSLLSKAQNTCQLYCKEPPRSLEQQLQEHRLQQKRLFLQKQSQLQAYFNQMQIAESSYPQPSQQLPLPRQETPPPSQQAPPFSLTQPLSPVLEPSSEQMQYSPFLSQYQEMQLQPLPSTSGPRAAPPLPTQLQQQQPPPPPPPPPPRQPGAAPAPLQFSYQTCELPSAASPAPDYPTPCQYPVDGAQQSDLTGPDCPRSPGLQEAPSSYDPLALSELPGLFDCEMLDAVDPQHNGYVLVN

[3] = target: Serine/threonine-protein kinase 38-like (Homo sapiens) (UniProt Q9Y2H1); assay: Selectivity interaction (ActivX KiNativ screen (kinase selectivity in THP-1 cell lysates)) EUB0000639a STK38L; assay type: subcellular; settings: lysate, at 0.2 µM
Chain of Serine/threonine-protein kinase 38-like (Homo sapiens) (Q9Y2H1 2-464 limits assumed): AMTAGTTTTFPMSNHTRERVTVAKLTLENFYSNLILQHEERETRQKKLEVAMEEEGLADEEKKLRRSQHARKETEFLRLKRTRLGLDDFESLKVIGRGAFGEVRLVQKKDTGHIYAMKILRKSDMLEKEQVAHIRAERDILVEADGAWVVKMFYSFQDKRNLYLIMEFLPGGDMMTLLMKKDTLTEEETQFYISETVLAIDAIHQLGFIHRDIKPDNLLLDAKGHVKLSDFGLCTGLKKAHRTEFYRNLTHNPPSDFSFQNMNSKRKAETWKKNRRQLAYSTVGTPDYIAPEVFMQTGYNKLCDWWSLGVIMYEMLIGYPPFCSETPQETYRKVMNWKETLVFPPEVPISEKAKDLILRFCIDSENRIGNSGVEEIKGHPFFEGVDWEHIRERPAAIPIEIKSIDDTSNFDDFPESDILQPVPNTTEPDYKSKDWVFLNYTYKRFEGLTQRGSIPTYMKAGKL

[4] = target: Calcium/calmodulin-dependent protein kinase type II subunit alpha (Homo sapiens, UniProt Q9UQM7); assay: Selectivity interaction (Kinase panel (literature)) EUB0001199aCl CAMK2A; settings: at 1 µM
Chain of Calcium/calmodulin-dependent protein kinase type II subunit alpha (Q9UQM7 whole entry): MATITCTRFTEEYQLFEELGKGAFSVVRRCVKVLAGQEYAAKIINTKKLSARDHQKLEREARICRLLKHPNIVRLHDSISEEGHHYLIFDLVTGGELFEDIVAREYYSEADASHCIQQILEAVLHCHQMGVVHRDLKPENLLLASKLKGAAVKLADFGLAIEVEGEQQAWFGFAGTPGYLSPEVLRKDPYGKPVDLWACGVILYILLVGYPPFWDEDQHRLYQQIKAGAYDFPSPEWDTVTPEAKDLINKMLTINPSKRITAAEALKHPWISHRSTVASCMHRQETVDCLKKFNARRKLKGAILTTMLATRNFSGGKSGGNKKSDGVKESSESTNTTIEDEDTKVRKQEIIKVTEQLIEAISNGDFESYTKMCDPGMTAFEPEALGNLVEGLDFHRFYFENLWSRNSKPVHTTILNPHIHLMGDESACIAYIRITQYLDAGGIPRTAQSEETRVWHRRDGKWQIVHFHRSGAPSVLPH

[5] = target: T2, Serine/threonine-protein kinase DCLK3 (Homo sapiens) (UniProt Q9C098); settings: at 10 µM
T2 sequence (whole entry): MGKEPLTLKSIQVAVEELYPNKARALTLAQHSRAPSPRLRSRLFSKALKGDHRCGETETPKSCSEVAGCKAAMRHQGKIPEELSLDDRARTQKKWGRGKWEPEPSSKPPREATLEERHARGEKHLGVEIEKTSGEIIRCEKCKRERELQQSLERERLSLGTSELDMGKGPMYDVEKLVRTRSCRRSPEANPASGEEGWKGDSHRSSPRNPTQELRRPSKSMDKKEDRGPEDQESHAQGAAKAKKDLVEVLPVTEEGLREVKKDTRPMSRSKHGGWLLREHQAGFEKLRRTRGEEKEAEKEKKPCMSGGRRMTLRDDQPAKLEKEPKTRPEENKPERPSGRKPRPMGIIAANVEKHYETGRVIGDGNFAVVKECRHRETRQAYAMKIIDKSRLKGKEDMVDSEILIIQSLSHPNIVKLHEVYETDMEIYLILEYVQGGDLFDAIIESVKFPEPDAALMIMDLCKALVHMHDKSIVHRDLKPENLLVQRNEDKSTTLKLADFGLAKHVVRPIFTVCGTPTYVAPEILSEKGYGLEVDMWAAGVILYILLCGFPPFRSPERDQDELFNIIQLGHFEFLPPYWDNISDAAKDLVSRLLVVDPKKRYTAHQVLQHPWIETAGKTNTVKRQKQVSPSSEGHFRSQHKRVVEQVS

Cannabinoid receptor 1 = Cannabinoid receptor 1 (Homo sapiens, UniProt P21554); assay: Selectivity interaction (Panel of non-epigenetic targets (kinases, GPCRs, ion channels, and transporters, Eurofins) ) EUB0000271b CNR1; settings: at 1 µM
Chain of Cannabinoid receptor 1 (P21554 whole entry): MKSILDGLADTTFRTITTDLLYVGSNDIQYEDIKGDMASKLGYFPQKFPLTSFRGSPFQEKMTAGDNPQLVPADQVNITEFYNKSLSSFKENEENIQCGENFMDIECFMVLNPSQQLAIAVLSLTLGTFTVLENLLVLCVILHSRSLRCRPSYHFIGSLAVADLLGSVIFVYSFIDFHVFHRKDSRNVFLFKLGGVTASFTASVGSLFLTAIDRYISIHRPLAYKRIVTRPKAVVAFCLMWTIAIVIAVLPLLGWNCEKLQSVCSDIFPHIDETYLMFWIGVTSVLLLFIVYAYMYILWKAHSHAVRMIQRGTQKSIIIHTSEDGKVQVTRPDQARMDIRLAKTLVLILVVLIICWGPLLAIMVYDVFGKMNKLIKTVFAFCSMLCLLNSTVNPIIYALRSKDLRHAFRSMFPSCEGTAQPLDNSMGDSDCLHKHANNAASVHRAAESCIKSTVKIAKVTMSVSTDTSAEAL

[6] = target: BDNF/NT-3 growth factors receptor (Homo sapiens) (UniProt Q16620); assay: Selectivity interaction (KinomeScan (DiscoverX)) EUB0000229b NTRK2; settings: at 10 µM
Chain of BDNF/NT-3 growth factors receptor (Homo sapiens) (Q16620 32-822 limits assumed): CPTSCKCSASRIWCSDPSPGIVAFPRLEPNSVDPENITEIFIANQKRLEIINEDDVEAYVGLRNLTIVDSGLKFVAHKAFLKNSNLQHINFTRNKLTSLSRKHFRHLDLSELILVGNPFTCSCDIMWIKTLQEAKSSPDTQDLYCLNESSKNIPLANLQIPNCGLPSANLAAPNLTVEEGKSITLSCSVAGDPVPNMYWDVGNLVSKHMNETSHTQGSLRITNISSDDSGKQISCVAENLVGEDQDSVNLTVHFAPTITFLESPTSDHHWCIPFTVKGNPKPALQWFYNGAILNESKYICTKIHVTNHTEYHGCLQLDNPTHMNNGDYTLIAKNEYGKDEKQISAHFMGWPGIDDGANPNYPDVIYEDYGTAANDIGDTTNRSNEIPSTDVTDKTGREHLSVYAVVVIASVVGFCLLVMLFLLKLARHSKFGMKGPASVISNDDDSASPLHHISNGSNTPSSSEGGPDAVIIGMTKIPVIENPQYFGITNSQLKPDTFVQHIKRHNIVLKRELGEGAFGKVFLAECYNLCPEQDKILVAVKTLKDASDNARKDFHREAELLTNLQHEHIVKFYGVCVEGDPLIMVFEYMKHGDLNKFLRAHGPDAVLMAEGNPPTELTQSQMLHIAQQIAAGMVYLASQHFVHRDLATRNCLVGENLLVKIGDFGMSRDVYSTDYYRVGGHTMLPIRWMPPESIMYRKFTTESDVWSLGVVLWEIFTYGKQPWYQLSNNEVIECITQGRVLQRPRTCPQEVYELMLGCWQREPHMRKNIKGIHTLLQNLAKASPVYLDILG

[7] = target: Cyclin-dependent kinase 11B (Homo sapiens) (UniProt P21127); assay: Selectivity interaction (KinomeScan (DiscoverX)) EUB0000092b CDK11B; settings: at 10 µM
Chain of Cyclin-dependent kinase 11B (Homo sapiens) (P21127 whole entry): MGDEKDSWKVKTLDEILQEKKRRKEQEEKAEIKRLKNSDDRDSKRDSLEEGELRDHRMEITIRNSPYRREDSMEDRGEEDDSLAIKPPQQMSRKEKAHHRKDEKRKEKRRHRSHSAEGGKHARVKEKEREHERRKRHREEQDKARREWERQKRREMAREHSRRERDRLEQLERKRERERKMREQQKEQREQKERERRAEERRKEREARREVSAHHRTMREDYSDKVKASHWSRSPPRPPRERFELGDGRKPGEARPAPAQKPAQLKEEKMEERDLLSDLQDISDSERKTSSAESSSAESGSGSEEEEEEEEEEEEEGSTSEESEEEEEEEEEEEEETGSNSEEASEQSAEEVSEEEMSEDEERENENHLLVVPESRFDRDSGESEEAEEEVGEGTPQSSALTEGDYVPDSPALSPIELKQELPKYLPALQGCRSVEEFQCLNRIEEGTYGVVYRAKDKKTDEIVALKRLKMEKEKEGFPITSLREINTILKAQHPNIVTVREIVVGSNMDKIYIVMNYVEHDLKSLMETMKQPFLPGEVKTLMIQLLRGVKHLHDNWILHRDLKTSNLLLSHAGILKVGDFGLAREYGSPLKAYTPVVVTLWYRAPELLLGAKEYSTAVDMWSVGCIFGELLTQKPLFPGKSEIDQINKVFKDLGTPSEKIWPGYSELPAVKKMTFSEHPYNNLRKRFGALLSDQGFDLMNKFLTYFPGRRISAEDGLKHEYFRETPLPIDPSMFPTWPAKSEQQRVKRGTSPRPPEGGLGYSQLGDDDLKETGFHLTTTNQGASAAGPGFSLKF

[8] = target: MAP kinase-interacting serine/threonine-protein kinase 2 (Homo sapiens, UniProt Q9HBH9); assay: Selectivity interaction (KinomeScan (DiscoverX)) EUB0000045b MKNK2
Chain of MAP kinase-interacting serine/threonine-protein kinase 2 (Q9HBH9 whole entry, looked up): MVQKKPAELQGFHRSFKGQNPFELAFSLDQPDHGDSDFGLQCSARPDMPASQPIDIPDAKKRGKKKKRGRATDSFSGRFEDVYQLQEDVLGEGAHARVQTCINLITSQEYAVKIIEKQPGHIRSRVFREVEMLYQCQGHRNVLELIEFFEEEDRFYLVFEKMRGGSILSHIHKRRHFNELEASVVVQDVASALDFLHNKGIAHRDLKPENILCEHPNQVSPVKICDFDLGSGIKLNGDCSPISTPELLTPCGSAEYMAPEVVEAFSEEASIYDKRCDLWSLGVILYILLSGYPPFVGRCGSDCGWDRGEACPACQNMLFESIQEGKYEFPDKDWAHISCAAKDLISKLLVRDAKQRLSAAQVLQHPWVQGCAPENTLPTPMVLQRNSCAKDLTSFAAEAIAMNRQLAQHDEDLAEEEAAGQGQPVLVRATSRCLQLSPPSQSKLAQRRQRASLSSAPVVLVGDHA

[9] = target: T3, Activin receptor type-1 (Homo sapiens) (UniProt Q04771); assay: Selectivity interaction (KinomeScan (DiscoverX)) EUB0000618a ACVR1; settings: at 10 µM
T3 sequence (whole entry): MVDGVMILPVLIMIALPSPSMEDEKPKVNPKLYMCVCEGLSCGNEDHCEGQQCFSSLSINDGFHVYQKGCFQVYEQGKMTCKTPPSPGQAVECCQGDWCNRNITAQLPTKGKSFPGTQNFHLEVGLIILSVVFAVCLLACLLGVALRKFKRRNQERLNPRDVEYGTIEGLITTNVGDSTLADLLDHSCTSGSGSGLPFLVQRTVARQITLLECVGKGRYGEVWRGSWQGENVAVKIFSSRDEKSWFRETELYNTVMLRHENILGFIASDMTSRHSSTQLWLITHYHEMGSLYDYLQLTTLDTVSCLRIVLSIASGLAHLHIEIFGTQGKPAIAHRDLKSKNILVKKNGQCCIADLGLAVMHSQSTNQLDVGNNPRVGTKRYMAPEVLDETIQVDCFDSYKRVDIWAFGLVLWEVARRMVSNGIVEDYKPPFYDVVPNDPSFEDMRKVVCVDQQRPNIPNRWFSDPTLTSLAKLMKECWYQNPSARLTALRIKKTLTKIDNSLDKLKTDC

[10] = target: Tyrosine-protein kinase Blk (Homo sapiens) (UniProt P51451); assay: Selectivity interaction (KinomeScan (DiscoverX)) EUB0000607a BLK; settings: at 10 µM
Chain of Tyrosine-protein kinase Blk (Homo sapiens) (P51451 2-505 limits assumed): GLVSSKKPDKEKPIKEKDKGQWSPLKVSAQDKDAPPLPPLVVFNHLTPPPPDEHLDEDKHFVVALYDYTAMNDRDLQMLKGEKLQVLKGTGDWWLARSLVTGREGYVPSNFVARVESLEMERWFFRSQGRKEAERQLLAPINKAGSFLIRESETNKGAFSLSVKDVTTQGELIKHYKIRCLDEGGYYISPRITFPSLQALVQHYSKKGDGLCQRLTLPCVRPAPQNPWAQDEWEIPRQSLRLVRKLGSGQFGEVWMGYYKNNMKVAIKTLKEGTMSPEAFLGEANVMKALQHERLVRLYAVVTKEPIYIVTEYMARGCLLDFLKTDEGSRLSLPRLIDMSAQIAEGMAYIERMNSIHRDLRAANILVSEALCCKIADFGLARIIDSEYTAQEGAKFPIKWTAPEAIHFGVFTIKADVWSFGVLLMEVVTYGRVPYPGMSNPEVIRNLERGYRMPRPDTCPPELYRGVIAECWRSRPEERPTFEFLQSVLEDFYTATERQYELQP

[11] = target: Serine/threonine-protein kinase 38-like (Homo sapiens) (UniProt Q9Y2H1); assay: Selectivity interaction (Kinase panel (KiNativ target engagement assay in Jurkat cells)) EUB0001635a STK38L; assay type: cell-based; settings: Selectivity number of off-targets 0.0, Selectivity number of targets 233.0, Source Knowledge https://www.sciencedirect.com/science/article/pii/S2451945619300674?via%3Dihub, at 1 µM

Question: With `Cc1cc([C@@H](C)Nc2ccccc2C(=O)O)c2nc(N3CCOCC3)cc(=O)n2c1` [AZD-6482] as the compound, how does the % of control [1] read?
Answer: 100%

Question: What about the % of control [2] of the same compound?
Answer: 100%

Question: For `CC[C@@H]1[C@H](F)C(=O)N[C@@H]1COc1nccc2cc(C(N)=O)c(OC)cc12` [ZIMLOVISERTIB], which % of inhibition [3] is on record?
Answer: 18.4%

Question: For `CN1Cc2nccc(-c3cn(C)nc3-c3ccc(F)cc3)c2C1=O`, which % of inhibition [4] is on record?
Answer: 10%

Question: For `CCN(CC)CCCCNc1ncc2cc(-c3cc(OC)cc(OC)c3)c(NC(=O)NC(C)(C)C)nc2n1`, which % of control [5] is on record?
Answer: 100%

Question: `Cc1cc(C)cc([C@@H]2c3cc(C)ccc3NC(=O)CN2C(=O)c2ccc(Br)s2)c1` was tested. Which % of inhibition (Cannabinoid receptor 1) did it give?
Answer: -20%

Question: For `COc1cc(N(C)c2ccnc3ccc(C(F)(F)F)cc23)cc(OC)c1OC`, which % binding [6] is on record?
Answer: 100%

Question: For `CCC(=O)N1CCN(c2ccc(-n3c(=O)ccc4cnc5ccc(-c6cnc7ccccc7c6)cc5c43)cc2C(F)(F)F)CC1`, which % of control [7] is on record?
Answer: 97%

Question: Which % of control ([8]; at 1 µM) does the source give for `C=CC(=O)Nc1cc(-n2c(=O)ccc3cnc4ccc(-c5ccc(NS(C)(=O)=O)cc5)cc4c32)ccc1C` here?
Answer: 100%

Question: What about the % of control ([8]; at 10 µM) of the same compound?
Answer: 52%

Question: How did the % of control [9] turn out when `O[C@H]1CC[C@H](Nc2ncc3nc(Nc4c(F)cc(F)cc4F)n([C@H]4CCOC4)c3n2)CC1` was run?
Answer: 100%

Question: For `CNC(=O)Nc1ccc(-c2nc(N3CC4CCC(C3)O4)c3cnn(C4CCC5(CC4)OCCO5)c3n2)cc1`, which % of control [10] is on record?
Answer: 96%

Question: How did the % of engagement [11] turn out when `C=CC(=O)Nc1ccc(C(=O)Nc2[nH]nc3c2CN(C(=O)N[C@H](CN(C)C)c2ccccc2)C3(C)C)cc1` was run?
Answer: 3.8%
